19 compounds from US20240228488A1 (TAKEDA PHARMACEUTICAL COMPANY LIMITED, priority 2021, published 2024) can be followed below.

As usually defined, the IC90 is the concentration at which the effect reaches the 90% level. Usually EC50 stands for the concentration giving half of the maximal effect.

For assay [1], the target named is T1, plasma kallikrein (Homo sapiens, UniProt P03952).
T1 construct: from tissue
Briefly: Neat human plasma assay, FXIIa contact pathway-activated, PFR-AMC substrate. Particulars: citrated human plasma 78% final, 10 nM human FXIIa, 100 μM PFR-AMC; read-out: Human Plasma Assay: IC90. It is filed as biochemical. The procedure, abridged:
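Citrated human plasma (78% final) with compound, contact-activated by 10 nM human FXIIa in pKal buffer pH 7.5, with 100 μM PFR-AMC. Fluorescence (360/480 nm) followed 5 min at room temperature; rates versus concentration fitted by 4-parameter equation for IC50/IC90.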

Assay [2] has as its target human activated kallikrein enzyme (Homo sapiens, UniProt P03952). Briefly: Plasma kallikrein inhibition, fluorogenic PFR-AMC substrate, 500 pM activated kallikrein format. It is filed as biochemical. Particulars: 500 pM activated kallikrein, 300 uM PFR-AMC, 30 min preincubation, 10 min reaction; read-out: Primary Dose Response Assay: Average EC50. The method in brief:
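Enzyme at 500 pM preincubated 30 min RT with inhibitors in 20 mM Tris pH 7.5, 1 mM EDTA, 150 mM NaCl, 0.1% PEG-400, 0.1% Triton X-100. Reaction started with 300 uM PFR-AMC, run 10 min RT; fluorescence read at 460 nm emission, 380 nm excitation. EC50 reported in ranges.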

Where only a bound is given, the exact number is not on record here.

Chain of human activated kallikrein enzyme (P03952 391-638 limits assumed): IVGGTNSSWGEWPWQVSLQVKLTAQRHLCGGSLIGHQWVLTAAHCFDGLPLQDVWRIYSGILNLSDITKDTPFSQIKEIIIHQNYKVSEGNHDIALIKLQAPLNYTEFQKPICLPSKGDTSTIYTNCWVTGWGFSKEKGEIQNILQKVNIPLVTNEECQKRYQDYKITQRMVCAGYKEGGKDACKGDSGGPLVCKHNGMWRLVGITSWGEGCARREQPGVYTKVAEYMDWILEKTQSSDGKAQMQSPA
Chain of human activated kallikrein enzyme (P03952 20-390 partner limits assumed): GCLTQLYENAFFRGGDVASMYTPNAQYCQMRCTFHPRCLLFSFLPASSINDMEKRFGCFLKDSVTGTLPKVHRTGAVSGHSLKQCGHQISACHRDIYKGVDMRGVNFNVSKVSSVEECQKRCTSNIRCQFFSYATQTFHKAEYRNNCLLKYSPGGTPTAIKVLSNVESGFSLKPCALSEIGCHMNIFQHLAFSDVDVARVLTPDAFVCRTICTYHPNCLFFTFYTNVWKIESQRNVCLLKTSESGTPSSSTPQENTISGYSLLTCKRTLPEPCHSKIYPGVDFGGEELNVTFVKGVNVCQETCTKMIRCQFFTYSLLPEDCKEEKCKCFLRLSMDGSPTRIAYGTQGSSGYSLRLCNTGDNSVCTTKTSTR
T1 sequence (P03952 391-638 limits assumed): as the sequence (P03952 391-638 limits assumed) above
T1 sequence (P03952 20-390 partner limits assumed): as the sequence (P03952 20-390 partner limits assumed) above

With `Cc1ccnc([C@H]2C[C@@H]2C(=O)Nc2cc(NC(C)c3cn4cc(C5CC5)cc(N5CCN(C)C5=O)c4n3)nc(C)n2)n1` (stereo partly drawn) [Example 364, (1S,2S)-N-(6-((1-(6-cyclopropyl-8-(3-methyl-2-oxoimidazolidin-1-yl)imidazo[1,2-a]pyridin-2-yl)ethyl)amino)-2-methylpyrimidin-4-yl)-2-(4-methylpyrimidin-2-yl)cyclopropane-1-carboxamide], the IC90 in assay [1] lay within 0.4 to 1.5 µM. The EC50 in assay [2] is less than 0.001 µM.

Consider `Cc1ccnc([C@H]2C[C@@H]2C(=O)Nc2cc(NCc3cn4cc(C5CC5)cc(N5CC(=O)N(C)C5=O)c4n3)nc(C)n2)n1` [Example 365, (1S,2S)-N-(6-(((6-cyclopropyl-8-(3-methyl-2,4-dioxoimidazolidin-1-yl)imidazo[1,2-a]pyridin-2-yl)methyl)amino)-2-methylpyrimidin-4-yl)-2-(4-methylpyrimidin-2-yl)cyclopropane-1-carboxamide], for which, in assay [1], the IC90 is less than 0.4 µM. Moreover, the EC50 in assay [2] is less than 0.001 µM.

Regarding `Cc1ccnc([C@H]2C[C@@H]2C(=O)Nc2cc(NCc3cn4cc(C5CC5)cc(-n5c(=O)n(C)c(=O)n5C)c4n3)ncn2)n1` [Example 367, (1S,2S)-N-(6-(((6-cyclopropyl-8-(2,4-dimethyl-3,5-dioxo-1,2,4-triazolidin-1-yl)imidazo[1,2-a]pyridin-2-yl)methyl)amino)pyrimidin-4-yl)-2-(4-methylpyrimidin-2-yl)cyclopropane-1-carboxamide], in assay [1], the IC90 fell in the range of 0.4 to 1.5 µM. Further, the EC50 in assay [2] is less than 0.001 µM.

Take `Cc1ccnc([C@H]2C[C@@H]2C(=O)Nc2cc(N(C)Cc3cn4cc(C5CC5)cc(N5CC(=O)N(CC(C)(C)O)C5=O)c4n3)ncn2)n1` [Example 368, (1S,2S)-N-(6-(((6-cyclopropyl-8-(3-(2-hydroxy-2-methylpropyl)-2,4-dioxoimidazolidin-1-yl)imidazo[1,2-a]pyridin-2-yl)methyl)(methyl)amino)pyrimidin-4-yl)-2-(4-methylpyrimidin-2-yl)cyclopropane-1-carboxamide]: the IC90 in assay [1] is less than 0.4 µM. The EC50 in assay [2] was less than 0.001 µM.

As to `Cc1ccnc([C@H]2C[C@@H]2C(=O)Nc2cc(N(C)C(C)c3cn4cc(C5CC5)cc(N5CC(=O)N(C)C5=O)c4n3)ncn2)n1` (stereo partly drawn) [Example 369, (1S,2S)-N-(6-((1-(6-cyclopropyl-8-(3-methyl-2,4-dioxoimidazolidin-1-yl)imidazo[1,2-a]pyridin-2-yl)ethyl)(methyl)amino)pyrimidin-4-yl)-2-(4-methylpyrimidin-2-yl)cyclopropane-1-carboxamide], in assay [1], the IC90 was in the range of 1.5 to 10 µM. In assay [2], the EC50 lay within 0.001 to 0.01 µM.

Turning to `Cc1ccnc([C@H]2C[C@@H]2C(=O)Nc2cc(N(CC(=O)OCc3ccccc3)Cc3cn4cc(C5CC5)cc(N5CC(=O)N(C)C5=O)c4n3)ncn2)n1` [Example 371, benzyl N-((6-cyclopropyl-8-(3-methyl-2,4-dioxoimidazolidin-1-yl)imidazo[1,2-a]pyridin-2-yl)methyl)-N-(6-((1S,2S)-2-(4-methylpyrimidin-2-yl)cyclopropane-1-carboxamido)pyrimidin-4-yl)glycinate], the IC90 in assay [1] is 1.5 to 10 µM. For the same compound, the EC50 in assay [2] fell in the range of 0.001 to 0.01 µM.

For the compound `Cc1ccnc([C@H]2C[C@@H]2C(=O)Nc2cc(NCc3cn4cc(C5CC5)cc(N5CC6(COC6)OC5=O)c4n3)ncn2)n1` [Example 372, (1S,2S)-N-(6-(((6-cyclopropyl-8-(6-oxo-2,5-dioxa-7-azaspiro[3.4]octan-7-yl)imidazo[1,2-a]pyridin-2-yl)methyl)amino)pyrimidin-4-yl)-2-(4-methylpyrimidin-2-yl)cyclopropane-1-carboxamide], the IC90 in assay [1] is less than 0.4 µM. Moreover, in assay [2], the EC50 was less than 0.001 µM.

Regarding `COCC(Nc1cc(NC(=O)[C@H]2C[C@@H]2c2nccc(C)n2)ncn1)c1cn2cc(C3CC3)cc(N3CC(=O)N(C)C3=O)c2n1` (stereo partly drawn) [Example 373, (1S,2S)-N-(6-((1-(6-cyclopropyl-8-(3-methyl-2,4-dioxoimidazolidin-1-yl)imidazo[1,2-a]pyridin-2-yl)-2-methoxyethyl)amino)pyrimidin-4-yl)-2-(4-methylpyrimidin-2-yl)cyclopropane-1-carboxamide], in assay [1], the IC90 was in the range of 0.4 to 1.5 µM. Also, in assay [2], the EC50 fell in the range of 0.001 to 0.01 µM.

With `Cc1ccnc([C@H]2C[C@@H]2C(=O)Nc2cc(NCc3cn4cc(C5(F)CC5)cc(N5CC(=O)N(C)C5=O)c4n3)ncn2)n1` [Example 374, (1S,2S)-N-(6-(((6-(1-fluorocyclopropyl)-8-(3-methyl-2,4-dioxoimidazolidin-1-yl)imidazo[1,2-a]pyridin-2-yl)methyl)amino)pyrimidin-4-yl)-2-(4-methylpyrimidin-2-yl)cyclopropane-1-carboxamide], the IC90 in assay [1] was less than 0.4 µM. In addition, in assay [2], the EC50 was less than 0.001 µM.

Regarding `Cc1ccnc([C@H]2C[C@@H]2C(=O)Nc2cc(N(C)Cc3cn4cc(C5CC5)cc(N5CC(=O)NC5=O)c4n3)ncn2)n1` [Example 375, (1S,2S)-N-(6-(((6-cyclopropyl-8-(2,4-dioxoimidazolidin-1-yl)imidazo[1,2-a]pyridin-2-yl)methyl)(methyl)amino)pyrimidin-4-yl)-2-(4-methylpyrimidin-2-yl)cyclopropane-1-carboxamide], the IC90 in assay [1] is less than 0.4 µM. Also, in assay [2], the EC50 is less than 0.001 µM.

As to `Cc1ccnc([C@H]2C[C@@H]2C(=O)Nc2cc(NCc3cn4cc(C5CC5)cc(N5CCOC5=O)c4n3)ncn2)n1` [Example 376, (1S,2S)-N-(6-(((6-cyclopropyl-8-(2-oxooxazolidin-3-yl)imidazo[1,2-a]pyridin-2-yl)methyl)amino)pyrimidin-4-yl)-2-(4-methylpyrimidin-2-yl)cyclopropane-1-carboxamide], in assay [1], the IC90 is less than 0.4 µM. For the same compound, in assay [2], the EC50 was less than 0.001 µM.

As for `Cc1ccnc([C@H]2C[C@@H]2C(=O)Nc2cc(NCc3cn4cc(C5CC5)cc(N5CCCC5=O)c4n3)ncn2)n1` [Example 377, (1S,2S)-N-(6-(((6-cyclopropyl-8-(2-oxopyrrolidin-1-yl)imidazo[1,2-a]pyridin-2-yl)methyl)amino)pyrimidin-4-yl)-2-(4-methylpyrimidin-2-yl)cyclopropane-1-carboxamide], in assay [1], the IC90 fell in the range of 0.4 to 1.5 µM. For the same compound, the EC50 in assay [2] is less than 0.001 µM.

For `Cc1ccnc([C@H]2C[C@@H]2C(=O)Nc2cc(NCc3cn4cc(C5CC5)cc(N5CC(=O)N(C6COC6)C5=O)c4n3)ncn2)n1` [Example 378, (1S,2S)-N-(6-(((6-cyclopropyl-8-(3-(oxetan-3-yl)-2,4-dioxoimidazolidin-1-yl)imidazo[1,2-a]pyridin-2-yl)methyl)amino)pyrimidin-4-yl)-2-(4-methylpyrimidin-2-yl)cyclopropane-1-carboxamide], the IC90 in assay [1] is less than 0.4 µM. The EC50 in assay [2] is less than 0.001 µM.

Consider `Cc1ccnc([C@H]2C[C@@H]2C(=O)Nc2cc(NCc3nc4c(N5CC(=O)N(C)C5=O)cc(C5CC5)cn4c3F)ncn2)n1` [Example 379, (1S,2S)-N-(6-(((6-cyclopropyl-3-fluoro-8-(3-methyl-2,4-dioxoimidazolidin-1-yl)imidazo[1,2-a]pyridin-2-yl)methyl)amino)pyrimidin-4-yl)-2-(4-methylpyrimidin-2-yl)cyclopropane-1-carboxamide], for which, in assay [1], the IC90 lay within 0.4 to 1.5 µM. For the same compound, the EC50 in assay [2] is less than 0.001 µM.

As to `Cc1ccnc([C@H]2C[C@@H]2C(=O)Nc2cc(NCc3cn4cc(C5CC5)ccc4n3)ncn2)n1` [Example 381, (1S,2S)-N-(6-(((6-cyclopropylimidazo[1,2-a]pyridin-2-yl)methyl)amino)pyrimidin-4-yl)-2-(4-methylpyrimidin-2-yl)cyclopropane-1-carboxamide], the IC90 in assay [1] lay within 10 to 48 µM. Moreover, the EC50 in assay [2] was less than 0.001 µM.

As for `COCCOCCN1C(=O)CN(c2cc(C3CC3)cn3cc(CNc4cc(NC(=O)[C@H]5C[C@@H]5c5nccc(C)n5)ncn4)nc23)C1=O` [Example 382, (1S,2S)-N-(6-(((6-cyclopropyl-8-(3-(2-(2-methoxyethoxy)ethyl)-2,4-dioxoimidazolidin-1-yl)imidazo[1,2-a]pyridin-2-yl)methyl)amino)pyrimidin-4-yl)-2-(4-methylpyrimidin-2-yl)cyclopropane-1-carboxamide], the IC90 in assay [1] was less than 0.4 µM. The EC50 in assay [2] was less than 0.001 µM.

For the compound `CCN1CCN(c2cc(C3CC3)cn3cc(CNc4cc(NC(=O)[C@H]5C[C@@H]5c5nccc(C)n5)ncn4)nc23)CC1` [Example 383, (1S,2S)-N-(6-(((6-cyclopropyl-8-(4-ethylpiperazin-1-yl)imidazo[1,2-a]pyridin-2-yl)methyl)amino)pyrimidin-4-yl)-2-(4-methylpyrimidin-2-yl)cyclopropane-1-carboxamide], in assay [1], the IC90 is less than 0.4 µM. In assay [2], the EC50 was less than 0.001 µM.

Regarding `Cc1ccnc([C@H]2C[C@@H]2C(=O)Nc2cc(NCc3cn4cc(C5CC5)cc(N5CC(=O)N(C6CC6)C5=O)c4n3)ncn2)n1` [Example 384, (1S,2S)-N-(6-(((6-cyclopropyl-8-(3-cyclopropyl-2,4-dioxoimidazolidin-1-yl)imidazo[1,2-a]pyridin-2-yl)methyl)amino)pyrimidin-4-yl)-2-(4-methylpyrimidin-2-yl)cyclopropane-1-carboxamide], the IC90 in assay [1] was less than 0.4 µM. The EC50 in assay [2] was less than 0.001 µM.

For `CCN1C(=O)CN(c2cc(C3CC3)cn3cc(CNc4cc(NC(=O)[C@H]5C[C@@H]5c5nccc(C)n5)ncn4)nc23)C1=O` [Example 385, (1S,2S)-N-(6-(((6-cyclopropyl-8-(3-ethyl-2,4-dioxoimidazolidin-1-yl)imidazo[1,2-a]pyridin-2-yl)methyl)amino)pyrimidin-4-yl)-2-(4-methylpyrimidin-2-yl)cyclopropane-1-carboxamide], the IC90 in assay [1] was less than 0.4 µM. For the same compound, the EC50 in assay [2] is less than 0.001 µM.
